Reference: article PMC7618104, “The GLP-1 analogue, exendin-4, improves bone material properties and strength through a central relay in ovariectomized mice” (American journal of physiology. Endocrinology and metabolism, 2025)

Legend:
[1] = system: ovariectomized BALB/c mice; assay: Tissue material strength of femur (from peak bending moment and geometry); type: in vivo, mouse (BALB/cJRj, female); settings: 28 days, vs OVX+vehicle, n=8
Protocol: (§1) Eight animals were randomly assigned to each group.
The whole-bone strength of right femurs was assessed by 3-point bending in accordance with published guidelines ([34]). Three-point bending strength was measured with a constant span length of 10 mm. Bones were tested in the antero-posterior axis with the posterior surface facing upward, centered on the support and the pressing force was applied vertically to the midshaft of the bone. Each bone was tested fully hydrated and at room temperature with a loading speed of 2 mm.min^-1 until failure with a 500 N load cell on an Instron 5942 device (Instron, Elancourt, France) and the load-displacement curve was recorded at a 100 Hz rate by the Bluehill 3 software (Instron). Ultimate load, ultimate displacement, stiffness and work to fracture were calculated as indicated in ([34]). The yield point was determined as the point at which a regression line that represents a 10% loss in stiffness crosses the load-displacement curve. Post-yield displacement was computed as the displacement between yielding and fracture. Peak bending moment was calculated as one-half the ultimate load multiplied by one-half the span length ([34]). The peak bending moment is related to bone tissue material properties and bone midshaft geometry by the following equation: M=σb×IML/cAP […]

[2] = system: ovariectomized BALB/c mice; assay: microCT trabecular microstructure, proximal tibia metaphysis; type: in vivo, mouse (BALB/cJRj, female); settings: 28 days, vs OVX+vehicle, n=8
Protocol: as §1
All animals received intraperitoneal administration of calcein green (10 mg/kg) 10 days and 2 days before sacrifice. Animals were housed in social groups and maintained in a 12 h:12 h light/dark cycle. They had free access to water and food. At necropsy, blood was collected by intracardiac aspiration into EDTA-treated tubes. Blood samples were centrifuged at 13,000 g for 15 min, aliquoted and stored at -80°C until plasma levels of exendin-4 (#EK-070-94, Phoenix pharmaceuticals, Burlingame, CA) and calcitonin (NBP3-06734, Bio-Techne Ltd, Abingdon, UK) were measured according to the manufacturer’s protocol. Plasma levels of the bone remodeling markers C-terminal telopeptide of collagen type I (CTx-I – RatLaps, Immunodiagnostic Systems Ltd, Boldon, UK) and N-terminal propeptide of type I collagen (P1NP - Rat/mouse P1NP, Immunodiagnostic Systems Ltd) were measured according to the manufacturers’ recommendation. Right femurs were wrapped in saline-soaked gauze and frozen at -20°C until use. Right tibiae were fixed in ethanol-based fixative and stored at 4°C until use. No specific inclusion or exclusion criteria were applied for animal selection. […] Additionally, correct implantation of the cerebral perfusion cannulas for icv-administered animals was verified at necropsy. All animals meeting these criteria were included in the study.
MicroCT analyses were performed at the proximal metaphysis of the right tibia and at the mid-diaphysis of the right femur with a Bruker 1272 microtomograph operated at 70 kV, 140 μA, 1000 ms integration time and imaging in ethanol 70. The isotropic pixel size was fixed at 4 μm, the rotation step at 0.25° and exposure was performed with a 0.5 mm aluminum filter. Hydroxyapatite phantoms (250 mg/cm^3 and 750 mg/cm^3) were used for calibration. Reconstruction of 2D projections was done with the NRecon software (Version 1.6.10.2). For tibial analysis, a trabecular volume of interest was located 0.5 mm below the growth plate at the proximal end and extended 2 mm down. Trabecular bone was separated from cortical bone with an automatic contouring script in CTan software (Version 1.20.8.0). The right femur was used for cortical microarchitecture. The region analyzed (0.5 mm) was centered at the midpoint between the third trochanter and the distal growth plate. Bone was segmented from soft tissue using global thresholding set at 300 mg/cm^3 for trabecular bone and 700 mg/cm^3 for cortical bone. All histomorphometrical parameters were measured with the CTan software according to guidelines and nomenclature proposed by the American Society for Bone and Mineral Research ([31]).

[3] = system: splenocytes isolated from BALB/c ovariectomized (OVX) mice; assay: Osteoclast differentiation assay (TRAP staining); type: cell-based, mouse (BALB/cJRj); settings: 10 nM Exendin-4, M-CSF + RANKL, 7 days
Protocol: To investigate the potential effect of Exendin-4 (Ex-4) on osteoclast differentiation, we used splenocytes isolated from BALB/c ovariectomized (OVX) mice (BALB/cJRj; Janvier Labs, Saint-Berthevin, France). Mice were ovariectomized at 12 weeks of age, and splenocytes were isolated 4 weeks post-ovariectomy. The splenocytes were cultured in osteoclast differentiation medium (α-MEM supplemented with 10% FBS, 100 U/mL penicillin/streptomycin, 50 ng/mL macrophage colony-stimulating factor (M-CSF, Bio-Techne, Noyal-Chatillon-sur-Seiche, France), and 30 ng/mL receptor activator of NF-κB ligand (RANKL, Bio-Techne) in the presence or absence of 10 nM Exendin-4. D-Ala2-GIP at a concentration of 10 nM was used as positive controls, as previously reported ([39]). Cells were cultured for 7 days, with media changes every 2 days. Osteoclast differentiation was evaluated by TRAP staining, as previously described ([39]).
Supplementary Figure S4 – Effect of Exendin-4 on osteoclast differentiation in vitro. Splenocytes were isolated from BALB/c ovariectomized (OVX) mice at 12 weeks of age, 4 weeks post-ovariectomy, and cultured in osteoclast differentiation medium containing M-CSF and RANKL, with or without 10 nM Exendin-4. Cells were cultured for 7 days, and osteoclast differentiation was assessed by TRAP staining.
D-Ala2-GIP was used at 10 nM and served as positive controls. […]

exendin-4 [Ex-4]
increase in tissue material strength ([1]; icv Ex-4 70 pmol/day, p=0.005): 9%
increase in tissue material strength ([1]; s.c. Ex-4 ~700 pmol/day, p=0.043): 11%
change in Tb.N ([2]; icv Ex-4 70 pmol/day, p<0.001): 4%
change in BV/TV ([2]; icv Ex-4 70 pmol/day, p=0.005): +6%
increase in Tb.N ([2]; s.c. Ex-4 ~700 pmol/day, p<0.001): 6%
increase in BV/TV ([2]; s.c. Ex-4 ~700 pmol/day, p=0.002): 11%
osteoclast differentiation [3]: No significant differences in osteoclast differentiation
